This note sets out measurements from patent US4540702A, “2-Substituted-4-thiazolidones” (Kureha Kagaku Kogyo Kabushiki Kaisha, priority 1979, dated 1985).

What all share (format): in vivo
Experiment [1] in a line: Effect against peptic ulcer formed by ligating the pylorus (Shay et al.). The settings on record: pylorus-ligated rat, 100 mg/kg intraperitoneal; for inhibition in vivo at 100 mg/kg: Rattus norvegicus, ip, 15 h, vs control group, read-out: Rate of suppression of peptic ulcer; for Coefficient of peptic ulcer: 15 hours. The procedure:
Each male rat of a group consisting of 10 animals, weighing 180 to 200 g, after 48 hours' fasting, was subjected to ligature at its pyloric part under the anesthesia by ether following the method of Shay et al. (refer to Gastroenterology, Vol. 5, 43, 1945). Just after the ligature, each of the present compounds suspended in an aqueous physiological saline solution was injected into each rat's abdominal cavity at a dose rate of 100 mg/kg body weight, the control group being injected with an aqueous physiological saline solution. After keeping the rats at a state of fasting without taking water for 15 hours, the rats were sacrificed by ether and their stomachs were removed to examine under a microscope for autopsy. The longitudinal and horizontal lengths of the thus formed peptic ulcer were determined and expressed by the product (mm^2), and the total sum of the products was represented as the coefficient of ulcer.
The rate of suppression of peptic ulcer (%) is expressed by the ratio of the difference between the coefficient of peptic ulcer of control group and the coefficient of peptic ulcer of the treated group to the coefficient of peptic ulcer of control group multiplied by 100.

Experiment [2] is described as follows: Effect on duodenal peptic ulcer induced by acetic acid (Okabe et al.). As to conditions: oral 100 mg/kg/day, three times a day for 10 days; for inhibition in vivo at 100 mg/kg/day: Rattus norvegicus, po, 240 h, vs control group, read-out: Rate of curation of peptic ulcer; for Coefficient of peptic ulcer: acetic acid duodenal ulcer rat. The source says: The inventors of the present invention, taking into account of these situations, added to the method of evaluation the effect of accelerating the curation of the peptic ulcer by orally administering the present compound and a commercialized anti-peptic medicine, respectively to rats to which duodenal peptic ulcer due to acetic acid (refer to Okabe, 1971) considered to be most closely resembling to human peptic ulcer has been artificially formed.
Following the method of Okabe et al. (refer to Amer. J. Dig. Dis., Vol. 16, 277, 1971), each male rat weighing 240 to 260 g of a group consisting of 15 animals was subjected to laparotomy under ether-anesthesia and a metal circular frame was put on a part of the serosa at the distance of 5 to 7 mm from the duodenal pylorus and 0.06 ml of glacial acetic acid was poured on the circular part of the frame. After 30 seconds, the acetic liquid was removed and the frame was also removed. Each of the present compounds suspended in an aqueous 0.5% CMC solution was orally administered to the rat from after 3 days of the operation three times a day for consecutive 10 days, rats of control group being given the aqueous 0.5% CMC solution. After ending the administration, the rats were sacrificed by ether, their duodenum being removed to be examined under a microscope for autopsy. The longitudinal and horizontal lengths of the thus formed ulcer were determined and the product of the lengths expressed by mm^2 was recorded as the coefficient of peptic ulcer. The rate of curation of peptic ulcer, in this Example is calculated by the same manner as the rate of suppression of peptic ulcer in Example 5.

Experiment [3] can be described thus: Suppressive action on gastric secretion (pyloric ligature). As to conditions: rat, intraduodenal 200 mg/kg, 4 hours; for Rate of suppression on gastric secretion: vs control. The procedure:
Groups of male rats (a group consisted of 10 animals) were subjected to pyloric ligature under etherization after fasting for 24 hours, and each of the compounds to be tested was administered intraduodenally as an emulsion or suspension in an aqueous 0.5% by weight solution of sodium carboxymethylcellulose just after ligation. After 4 hours of the laparotomy, the stomach of each rat was extirpated under etherization, and the amount of gastric juice in the stomach was measured.

Take `COc1cc(C2NC(=O)CS2)cc(OC)c1OC` (stereo not drawn) [2-(3,4,5-trimethoxyphenyl)-4-thiazolidone]: in experiment [1], the inhibition in vivo at 100 mg/kg came to 85.8% and the “Coefficient of peptic ulcer” value turned out to be 6.5 mm^2. Also, in experiment [2], the inhibition in vivo at 100 mg/kg/day turned out to be 82.1% and the “Coefficient of peptic ulcer” value is 1.4 mm^2.
In the case of `COc1cccc(C2NC(=O)CS2)c1` (stereo not drawn) [2-(3-methoxyphenyl)-4-thiazolidone], in experiment [1], the inhibition in vivo at 100 mg/kg was found to be 86% and the “Coefficient of peptic ulcer” value was determined as 5.5 mm^2. Further, in experiment [2], the inhibition in vivo at 100 mg/kg/day was 73.3% and the “Coefficient of peptic ulcer” value worked out at 2.0 mm^2.
Taken in the same sequence, the figures for `COc1cc(C2NC(=O)CS2)cc(OC)c1O` (stereo not drawn) [2-(3,5-dimethoxy-4-hydroxyphenyl)-4-thiazolidone] were 81.9%, 7.6 mm^2, 88% and 2.4 mm^2.
For `COc1ccc(C2NC(=O)CS2)cc1` (stereo not drawn) [2-(4-methoxyphenyl)-4-thiazolidone], in experiment [1], the inhibition in vivo at 100 mg/kg was determined as 68.1% and the “Coefficient of peptic ulcer” value is listed as 13.4 mm^2. Besides, in experiment [2], the inhibition in vivo at 100 mg/kg/day was 58.7% and the “Coefficient of peptic ulcer” value was 3.1 mm^2.
As to `COc1ccccc1C1NC(=O)CS1` (stereo not drawn) [2-(2-methoxyphenyl)-4-thiazolidone], in experiment [1], the inhibition in vivo at 100 mg/kg amounted to 87.4% and the “Coefficient of peptic ulcer” value is listed as 5.3 mm^2. Besides, in experiment [2], the inhibition in vivo at 100 mg/kg/day came to 80% and the “Coefficient of peptic ulcer” value came to 1.5 mm^2. Also, in experiment [3], the “Amount of gastric juice” value came to 4.0 mL and the “Rate of suppression on gastric secretion” value is 40.2%.
With `CN(C)c1ccc(C2NC(=O)CS2)cc1` (stereo not drawn) [2-(4-dimethylaminophenyl)-4-thiazolidone], in experiment [1], the inhibition in vivo at 100 mg/kg worked out at 75% and the “Coefficient of peptic ulcer” value is given as 10.5 mm^2. Moreover, in experiment [2], the inhibition in vivo at 100 mg/kg/day was 88% and the “Coefficient of peptic ulcer” value came out at 2.4 mm^2.
Consider `CC(C)=CCCC(C)=CCCC(C)=CCCC(=O)OCC=C(C)CCC=C(C)C` [Gefarnate, 3,7dimethyl-2,6-octadienyl 5,9,13trimethyl-4,8,12-tetradecatrienoate, reference compound], for which, in experiment [1], the inhibition in vivo at 100 mg/kg is roughly 11% and the “Coefficient of peptic ulcer” value worked out at 37.4 mm^2. In addition, in experiment [2], the inhibition in vivo at 100 mg/kg/day was 23% and the “Coefficient of peptic ulcer” value came out at 5.8 mm^2. Moreover, in experiment [3], the “Amount of gastric juice” value is 6.5 mL and the “Rate of suppression on gastric secretion” value is 2.9%.
With `CCOc1ccccc1C1NC(=O)CS1` (stereo not drawn) [2-(2-ethoxyphenyl)-4-thiazolidone], in experiment [1], the inhibition in vivo at 100 mg/kg was found to be 81.9% and the “Coefficient of peptic ulcer” value is 7.6 mm^2. In experiment [2], the inhibition in vivo at 100 mg/kg/day came to 76% and the “Coefficient of peptic ulcer” value was 1.8 mm^2. In addition, in experiment [3], the “Amount of gastric juice” value turned out to be 4.3 mL and the “Rate of suppression on gastric secretion” value is 35.8%.
For `COc1cccc(C2NC(=O)CS2)c1OC` (stereo not drawn) [2-(2,3-dimethoxyphenyl)-4-thiazolidone], in experiment [1], the inhibition in vivo at 100 mg/kg was 82.9% and the “Coefficient of peptic ulcer” value is 8.8 mm^2. Further, in experiment [2], the inhibition in vivo at 100 mg/kg/day is 82.7% and the “Coefficient of peptic ulcer” value is recorded as 1.3 mm^2. Further, in experiment [3], the “Amount of gastric juice” value came to 3.7 mL and the “Rate of suppression on gastric secretion” value was 44.7%.
With `O=C1CSC(c2ccccc2C(=O)O)N1` (stereo not drawn) [2-(2-carboxyphenyl)-4-thiazolidone], in experiment [1], the inhibition in vivo at 100 mg/kg is 79.8% and the “Coefficient of peptic ulcer” value is on record as 8.5 mm^2. Also, in experiment [2], the inhibition in vivo at 100 mg/kg/day worked out at 60% and the “Coefficient of peptic ulcer” value turned out to be 3.0 mm^2.
For the molecule `COc1ccc(OC)c(C2NC(=O)CS2)c1` (stereo not drawn) [2-(2,5-dimethoxyphenyl)-4-thiazolidone], in experiment [1], the inhibition in vivo at 100 mg/kg turned out to be 79% and the “Coefficient of peptic ulcer” value is listed as 9.4 mm^2. Further, in experiment [2], the inhibition in vivo at 100 mg/kg/day came to 65.3% and the “Coefficient of peptic ulcer” value is 2.6 mm^2. Also, in experiment [3], the “Amount of gastric juice” value is 3.5 mL and the “Rate of suppression on gastric secretion” value is 32.8%.
In the case of `COc1ccc(C2NC(=O)CS2)cc1OC` (stereo not drawn) [2-(3,4-dimethoxyphenyl)-4-thiazolidone], in experiment [1], the inhibition in vivo at 100 mg/kg amounted to 91.9% and the “Coefficient of peptic ulcer” value came out at 3.4 mm^2. Further, in experiment [2], the inhibition in vivo at 100 mg/kg/day was 80% and the “Coefficient of peptic ulcer” value is given as 1.5 mm^2. Moreover, in experiment [3], the “Amount of gastric juice” value stood at 3.3 mL and the “Rate of suppression on gastric secretion” value is reported as 50.7%.
